Assay results as given in US20260083851A1 (AVILAR THERAPEUTICS, INC., priority 2022, published 2026).
pEC50, pKd: −log10 of the molar value. Like-named read-outs stand apart in the source and are kept apart here. Positions of bridges follow the written chain, without caps; N, C: chain ends. Non-standard residues stand in square brackets, D forms with d. Residues, ends and D or L forms follow the SMILES beside them. ξ: configuration not given here. Pro(4S-NH2) = N[C@@H]1CN[C@H](C(=O)O)C1; ξPro(4-NH2) = NC1CNC(C(=O)O)C1

How the values were obtained:
[1] = biological target: IgG; test: IgG SPR binding; conditions: second table, read-out: IgG KD
[2] = biological target: T1, ASGPR (Homo sapiens, UniProt P07306); test: ASGPR SPR binding; conditions: second table, read-out: ASGPR KD
T1 construct: biotin (biotinylated)
T1 sequence (P07306 1-291): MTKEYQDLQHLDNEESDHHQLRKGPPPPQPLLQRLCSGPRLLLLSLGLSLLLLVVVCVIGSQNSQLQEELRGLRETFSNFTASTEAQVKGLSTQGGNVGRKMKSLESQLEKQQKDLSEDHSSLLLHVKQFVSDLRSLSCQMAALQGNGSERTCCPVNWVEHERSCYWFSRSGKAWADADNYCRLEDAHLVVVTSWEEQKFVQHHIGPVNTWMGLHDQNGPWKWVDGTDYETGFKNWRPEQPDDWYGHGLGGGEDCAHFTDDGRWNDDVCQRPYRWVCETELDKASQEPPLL

[3] = biological target: T2, ASGPR receptor on HepG2 cells (ternary complex with AF488-labeled antibody) (Homo sapiens, UniProt P07306); test: Ternary complex formation assay (flow cytometry, cell-associated AF488 fluorescence); assay type: cell-based
T2 construct: host or cells: HepG2
T2 sequence (P07306 1-291): T1 sequence (P07306 1-291)
T2 sequence (P07307 1-311 partner): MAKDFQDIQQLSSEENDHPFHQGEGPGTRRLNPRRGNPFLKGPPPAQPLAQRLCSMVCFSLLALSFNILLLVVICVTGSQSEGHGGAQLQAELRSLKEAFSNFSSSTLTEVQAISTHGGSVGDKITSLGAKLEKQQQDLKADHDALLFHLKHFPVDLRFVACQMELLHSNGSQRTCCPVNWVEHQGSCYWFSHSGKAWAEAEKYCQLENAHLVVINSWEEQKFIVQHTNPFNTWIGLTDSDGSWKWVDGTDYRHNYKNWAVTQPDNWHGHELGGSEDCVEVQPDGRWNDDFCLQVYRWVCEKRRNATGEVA
Experimental: Human IgG (Sigma-Aldrich, 14506) was covalently labeled with Alexa Fluor 488 using the Alexa Fluor™ 488 Protein Labeling Kit (Thermo Fisher, A10235) following the manufacturer's instructions. HepG2 cells (ATCC, HB-8065) were cultured to about 70% confluence and harvested by trypsinization. Single cell suspensions of HepG2 cells were plated in 96 well plates at 1×10^5 cells/well in cell culture media (DMEM supplemented with 10% FBS) and placed at 4° C. For studies using human IgG, cells were incubated with 100 nM AF488-labeled anti-human IgG and serial dilutions of IgG-based degrader for 1 hour at 4° C. For studies using DNP, cells were incubated with 100 nM AF488-labeled polyclonal rabbit anti-dinitrophenyl (DNP) antibodies (ThermoFisher) and serial dilutions of DNP-based degrader for 1 hour at 4° C. After washing once with ice-cold PBS containing 0.1% BSA and 0.1% sodium azide, cells were resuspended in 150 uL PBS+0.1% BSA and cell-associated AF488 fluorescence was measured by flow cytometry using the iQue® Screener PLUS Flow Cytometer (IntelliCyt). […]

[4] = read-out: TCF EC50, 100 nM AF488-labeled antibody, 1 hour at 4° C., the 25th table, class symbols

SMILES | pKd [1] | also measured
CC(C)CC1NC(=O)C(Cc2cnc[nH]2)NC(=O)C(Cc2c[nH]c3ccccc23)NC(=O)C(C)NC(=O)C2CSSCC(NC(=O)C(Cc3c[nH]c4ccccc34)NC(=O)C(C(C)C)NC(=O)C(CC(C)C)NC(=O)C(CCC(=O)O)NC(=O)CNC1=O)C(=O)NC(C(C)O)C(=O)N1CCCC1C(=O)N1CC(NC(=O)COc3ccc(CC(=O)NCC4OCC(Nc5cncc(C(F)(F)F)n5)C(O)C4O)cc3)CC1C(=O)NC(CC(=O)O)C(=O)N2 (stereo not drawn) [compound 37] | > 7.00 | pKd [2]: > 7.00; pEC50 [3, 4]: > 7.00
CC(C)CC1NC(=O)C(Cc2cnc[nH]2)NC(=O)C(Cc2c[nH]c3ccccc23)NC(=O)C(C)NC(=O)C2CSSCC(NC(=O)C(Cc3c[nH]c4ccccc34)NC(=O)C(C(C)C)NC(=O)C(CC(C)C)NC(=O)C(CCC(=O)O)NC(=O)CNC1=O)C(=O)NC(C(C)O)C(=O)N1CCCC1C(=O)N1CC(NC(=O)CC(=O)NCC3OCC(Nc4cncc(C(F)(F)F)n4)C(O)C3O)CC1C(=O)NC(CC(=O)O)C(=O)N2 (stereo not drawn) [compound 38] | > 7.00 | pKd [2]: > 7.00; pEC50 [3, 4]: > 7.00
CNC(=O)CCC1NC(=O)CNC(=O)C(CC(C)C)NC(=O)C(Cc2cnc[nH]2)NC(=O)C(Cc2c[nH]c3ccccc23)NC(=O)C(C)NC(=O)C2CSSCC(NC(=O)C(Cc3c[nH]c4ccccc34)NC(=O)C(C(C)C)NC(=O)C(CC(C)C)NC1=O)C(=O)NC(C(C)O)C(=O)N1CCCC1C(=O)N1CC(N)CC1C(=O)NC(CC(=O)O)C(=O)N2 (stereo not drawn) [compound 64] |  | pKd [2]: > 7.00
CC(C)C[C@@H]1NC(=O)[C@H](Cc2cnc[nH]2)NC(=O)[C@H](Cc2c[nH]c3ccccc23)NC(=O)[C@H](C)NC(=O)[C@@H]2CSSC[C@H](NC(=O)[C@H](Cc3c[nH]c4ccccc34)NC(=O)[C@H](C(C)C)NC(=O)[C@H](CC(C)C)NC(=O)[C@H](CCC(=O)N(C)C)NC(=O)CNC1=O)C(=O)N[C@@H]([C@@H](C)O)C(=O)N1CCC[C@@H]1C(=O)N1C[C@@H](N)C[C@H]1C(=O)N[C@@H](C)C(=O)N2 [compound 68] | > 7.00 | 
CC(C)CC1NC(=O)C(Cc2cnc[nH]2)NC(=O)C(Cc2c[nH]c3ccccc23)NC(=O)C(C)NC(=O)C2CSSCC(NC(=O)C(Cc3c[nH]c4ccccc34)NC(=O)C(C(C)C)NC(=O)C(CC(C)C)NC(=O)C(CCC(=O)O)NC(=O)CNC1=O)C(=O)NC(C(C)O)C(=O)N1CCCC1C(=O)N1CC(NC(=O)CCCc3cn(CC(=O)NC(COCCC(=O)NCCOCCOCCOCCOCC4OCC(Nc5cncc(C(F)(F)F)n5)C(O)C4O)COCCC(=O)NCCOCCOCCOCCOCC4OCC(Nc5cncc(C(F)(F)F)n5)C(O)C4O)nn3)CC1C(=O)NC(CC(=O)O)C(=O)N2 (stereo not drawn) [compound 77] | > 7.00 | pEC50 ([3]; 100 nM AF488-labeled antibody, 1 hour at 4° C., the 25th table, class symbols, read-out: TCF EC50): > 7.00
COC1OC(Cn2cc(CCCC(=O)NC3CC4C(=O)NC(CC(=O)O)C(=O)NC5CSSCC(NC(=O)C(Cc6c[nH]c7ccccc67)NC(=O)C(C(C)C)NC(=O)C(CC(C)C)NC(=O)C(CCC(=O)O)NC(=O)CNC(=O)C(CC(C)C)NC(=O)C(Cc6cnc[nH]6)NC(=O)C(Cc6c[nH]c7ccccc67)NC(=O)C(C)NC5=O)C(=O)NC(C(C)O)C(=O)N5CCCC5C(=O)N4C3)nn2)C(O)C(O)C1NC(C)=O (stereo not drawn) [compound 79] | > 7.00 | pKd [2]: < 6.00
CC(C)CC1NC(=O)C(Cc2cnc[nH]2)NC(=O)C(Cc2c[nH]c3ccccc23)NC(=O)C(C)NC(=O)C2CSSCC(NC(=O)C(Cc3c[nH]c4ccccc34)NC(=O)C(C(C)C)NC(=O)C(CC(C)C)NC(=O)C(CCC(=O)O)NC(=O)CNC1=O)C(=O)NC(C(C)O)C(=O)N1CCCC1C(=O)N1CC(NC(=O)c3ccc(N4CCC(CN5CCN(CC6OCC(Nc7cncc(C(F)(F)F)n7)C(O)C6O)CC5)CC4)cc3)CC1C(=O)NC(CC(=O)O)C(=O)N2 (stereo not drawn) [compound 98] | > 7.00 | pEC50 [3, 4]: > 7.00
CC(C)CC1NC(=O)C(Cc2cnc[nH]2)NC(=O)C(Cc2c[nH]c3ccccc23)NC(=O)C(C)NC(=O)C2CSSCC(NC(=O)C(Cc3c[nH]c4ccccc34)NC(=O)C(C(C)C)NC(=O)C(CC(C)C)NC(=O)C(CCC(=O)O)NC(=O)CNC1=O)C(=O)NC(C(C)O)C(=O)N1CCCC1C(=O)N1CC(NC(=O)CCCc3cn(CC45COC(O4)C(NC(=O)C(F)(F)F)C(O)C5O)nn3)CC1C(=O)NC(CC(=O)O)C(=O)N2 (stereo not drawn) [compound 104] | > 7.00 | EC50 ([3]; read-out: TCF EC50, 100 nM AF488-labeled antibody, 1 hour at 4° C., the 25th table, numeric bounds, nM from footnote): > 10000 nM

Now from value to compound, other results behind:

pKd [1] | SMILES | also measured
> 7.00 | CC(C)C[C@@H]1NC(=O)[C@H](Cc2cnc[nH]2)NC(=O)[C@H](Cc2c[nH]c3ccccc23)NC(=O)[C@H](C)NC(=O)[C@@H]2CSSC[C@H](NC(=O)[C@H](Cc3c[nH]c4ccccc34)NC(=O)[C@H](C(C)C)NC(=O)[C@H](CC(C)C)NC(=O)[C@H](CCC(=O)N(C)C)NC(=O)CNC1=O)C(=O)N[C@@H]([C@@H](C)O)C(=O)N1CCC[C@@H]1C(=O)N1C[C@@H](N)C[C@H]1C(=O)N[C@@H](CC(=O)O)C(=O)N2 [compound 65] | 
> 7.00 | CC(C)CC1NC(=O)C(Cc2cnc[nH]2)NC(=O)C(Cc2c[nH]c3ccccc23)NC(=O)C(C)NC(=O)C2CSSCC(NC(=O)C(Cc3c[nH]c4ccccc34)NC(=O)C(C(C)C)NC(=O)C(CC(C)C)NC(=O)C(CCC(=O)O)NC(=O)CNC1=O)C(=O)NC(C(C)O)C(=O)N1CCCC1C(=O)N1CC(N)CC1C(=O)NC(CC(=O)O)C(=O)N2 (stereo not drawn) [compound 66] | 
> 7.00 | CC(C)C[C@@H]1NC(=O)[C@H](C)NC(=O)CNC(=O)[C@H](CC(C)C)NC(=O)[C@H](Cc2cnc[nH]2)NC(=O)[C@H](Cc2c[nH]c3ccccc23)NC(=O)[C@H](C)NC(=O)[C@@H]2CSSC[C@H](NC(=O)[C@H](Cc3c[nH]c4ccccc34)NC(=O)[C@H](C(C)C)NC1=O)C(=O)N[C@@H]([C@@H](C)O)C(=O)N1CCC[C@@H]1C(=O)N1C[C@@H](N)C[C@H]1C(=O)N[C@@H](C)C(=O)N2 [compound 67] (cyclo(ACAWHLGALVWCT[dP][Pro(4S-NH2)]); disulfide 2-12) | 
> 7.00 | CC(C)CC1NC(=O)C(Cc2cnc[nH]2)NC(=O)C(Cc2c[nH]c3ccccc23)NC(=O)C(C)NC(=O)C2CSSCC(NC(=O)C(Cc3c[nH]c4ccccc34)NC(=O)C(C(C)C)NC(=O)C(CC(C)C)NC(=O)C(CCC(=O)N(C)C)NC(=O)CNC1=O)C(=O)NC(C(C)O)C(=O)N1CCCC1C(=O)N1CC(N)CC1C(=O)NC(CC(N)=O)C(=O)N2 (stereo not drawn) [compound 69] (cyclo(GE(NMe2)LVWCTP[ξPro(4-NH2)]NCAWHL); disulfide 6-11; configuration not given here) | 
> 7.00 | CC(C)C[C@@H]1NC(=O)[C@H](C)NC(=O)CNC(=O)[C@H](CC(C)C)NC(=O)[C@H](Cc2cnc[nH]2)NC(=O)[C@H](Cc2c[nH]c3ccccc23)NC(=O)[C@H](C)NC(=O)[C@@H]2CSSC[C@H](NC(=O)[C@H](Cc3c[nH]c4ccccc34)NC(=O)[C@H](C(C)C)NC1=O)C(=O)N[C@@H]([C@@H](C)O)C(=O)N1CCC[C@@H]1C(=O)N1C[C@@H](N)C[C@H]1C(=O)N[C@@H](CC(N)=O)C(=O)N2 [compound 70] (cyclo(ALVWCT[dP][Pro(4S-NH2)]NCAWHLG); disulfide 5-10) | 
> 7.00 | C#CCCCC(=O)NC1CC2C(=O)NC(CC(=O)O)C(=O)NC3CSSCC(NC(=O)C(Cc4c[nH]c5ccccc45)NC(=O)C(C(C)C)NC(=O)C(CC(C)C)NC(=O)C(CCC(=O)O)NC(=O)CNC(=O)C(CC(C)C)NC(=O)C(Cc4cnc[nH]4)NC(=O)C(Cc4c[nH]c5ccccc45)NC(=O)C(C)NC3=O)C(=O)NC(C(C)O)C(=O)N3CCCC3C(=O)N2C1 (stereo not drawn) [compound 75] | 
> 7.00 | CC(C)C[C@@H]1NC(=O)[C@H](Cc2cnc[nH]2)NC(=O)[C@H](Cc2c[nH]c3ccccc23)NC(=O)[C@H](C)NC(=O)[C@@H]2CSSC[C@H](NC(=O)[C@H](Cc3c[nH]c4ccccc34)NC(=O)[C@H](C(C)C)NC(=O)[C@H](CC(C)C)NC(=O)[C@H](CCC(=O)O)NC(=O)CNC1=O)C(=O)N[C@@H]([C@@H](C)O)C(=O)N1CCC[C@@H]1C(=O)N1C[C@H](N)C[C@H]1C(=O)N[C@@H](CC(=O)O)C(=O)N2 [compound 95] | 
> 7.00 | CC(C)C[C@@H]1NC(=O)[C@H](Cc2cnc[nH]2)NC(=O)[C@H](Cc2c[nH]c3ccccc23)NC(=O)[C@H](C)NC(=O)[C@@H]2CC/C=C/C[C@H](NC(=O)[C@H](Cc3c[nH]c4ccccc34)NC(=O)[C@H](C(C)C)NC(=O)[C@H](CC(C)C)NC(=O)[C@H](CCC(=O)O)NC(=O)CNC1=O)C(=O)N[C@@H]([C@@H](C)O)C(=O)N1CCC[C@@H]1C(=O)N1CCC[C@H]1C(=O)N[C@@H](CC(=O)O)C(=O)N2 [compound 99] | 
